Measured values from patent US12612424B2, “HPK1 inhibitors and uses thereof” (Regor Pharmaceuticals, Inc., priority 2019, dated 2026).
Where two headings read alike, the source gives them in different places.

Key:
HPK1 = HPK1 (Homo sapiens, UniProt Q92918); assay: HPK1 biochemical assay (ADP-GLO Kinase Assay)
Method in brief: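 HPK1 (0.6 ng/μL final) activity was followed with MBP substrate and 10 μM ATP in Tris pH 7.5/MgCl2/BSA/DTT buffer, measured by ADP-Glo luminescence. Compounds were tested as 3-fold dilutions from 10 μM. IC50 came from a three-parameter logistic fit, with inhibition normalised to high/low controls.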

JAK3 = target: T1, JAK3 (Homo sapiens, UniProt P52333); assay: JAK3 biochemical assay (ADP-GLO Kinase Assay); conditions: for JAKs/HPK1 IC50 Ratio, B* / JAKs/HPK1 IC50 Ratio, N*: ratio of JAK3 IC50 to HPK1 IC50; for JAKs/HPK1 IC50 Ratio, B*: first testing facility; for JAKs/HPK1 IC50 Ratio, N*: second testing facility
T1 construct: purchased Thermo fisher PV3855
T1 sequence (P52333 781-1124 limits assumed): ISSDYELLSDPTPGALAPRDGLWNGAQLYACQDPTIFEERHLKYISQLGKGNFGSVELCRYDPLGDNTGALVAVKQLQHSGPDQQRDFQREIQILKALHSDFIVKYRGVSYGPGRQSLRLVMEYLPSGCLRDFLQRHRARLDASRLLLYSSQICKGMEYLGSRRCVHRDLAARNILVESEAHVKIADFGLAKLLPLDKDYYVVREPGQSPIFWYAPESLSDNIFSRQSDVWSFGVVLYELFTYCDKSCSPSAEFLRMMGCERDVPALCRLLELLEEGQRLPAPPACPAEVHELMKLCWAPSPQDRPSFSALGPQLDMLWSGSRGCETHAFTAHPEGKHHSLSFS
Method in brief: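 Luminescent ADP-Glo readout after a 60 min, 25 °C reaction of JAK3 (0.78 ng) on Poly(E4Y1) (0.2 μg/μL) at 4 μM ATP, Tris pH 7.5 buffer with MgCl2, BSA and DTT. Compounds tested 10 μM down to 0.508 nM in 3-fold steps; % inhibition normalised to DMSO and reference-compound controls, IC50 from three-parameter fit.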

[1] = B*: testing performed in a first testing facility, read-out: HPK1 IC50 (nM) Relative, B*
[2] = B*: testing performed in a first testing facility, read-out: JAK3 IC50 (nM) Relative, B*
[3] = N*: testing performed in a second testing facility, read-out: HPK1 IC50 (nM) Relative, N*
[4] = N*: testing performed in a second testing facility, read-out: JAK3 IC50 (nM) Relative, N*

HPK1, sequence (Q92918 whole entry): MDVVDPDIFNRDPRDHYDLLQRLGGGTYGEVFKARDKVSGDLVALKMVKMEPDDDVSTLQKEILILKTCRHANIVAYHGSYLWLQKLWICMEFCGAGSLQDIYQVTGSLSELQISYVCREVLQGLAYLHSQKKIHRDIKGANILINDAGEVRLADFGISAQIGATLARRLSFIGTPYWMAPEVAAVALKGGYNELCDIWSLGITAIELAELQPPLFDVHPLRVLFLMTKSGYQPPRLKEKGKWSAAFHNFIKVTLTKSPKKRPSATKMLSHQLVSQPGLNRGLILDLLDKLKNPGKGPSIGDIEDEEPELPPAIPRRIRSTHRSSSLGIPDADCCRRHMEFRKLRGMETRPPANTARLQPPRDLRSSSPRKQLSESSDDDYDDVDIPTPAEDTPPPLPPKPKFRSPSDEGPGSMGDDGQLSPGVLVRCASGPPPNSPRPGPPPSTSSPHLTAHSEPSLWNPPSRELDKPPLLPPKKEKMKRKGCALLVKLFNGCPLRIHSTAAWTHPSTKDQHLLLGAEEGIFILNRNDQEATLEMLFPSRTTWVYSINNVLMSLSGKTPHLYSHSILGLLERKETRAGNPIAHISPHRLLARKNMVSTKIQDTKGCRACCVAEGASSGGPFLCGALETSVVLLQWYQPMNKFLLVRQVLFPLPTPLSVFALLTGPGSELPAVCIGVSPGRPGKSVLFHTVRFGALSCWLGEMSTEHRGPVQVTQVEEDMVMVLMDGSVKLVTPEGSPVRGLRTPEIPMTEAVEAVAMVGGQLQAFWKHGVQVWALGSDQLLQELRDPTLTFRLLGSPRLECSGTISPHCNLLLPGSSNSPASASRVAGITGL

Row | IC50 (HPK1; [1]) [nM] | IC50 (JAK3; [2]) [nM] | JAKs/HPK1 IC50 Ratio, B* (JAK3) | IC50 (HPK1; [3]) [nM] | IC50 (JAK3; [4]) [nM] | JAKs/HPK1 IC50 Ratio, N* (JAK3) | SMILES
1 | ≤ 100 | ≤ 100 | 80 |  |  |  | COc1cc2c(cc1Nc1ncc(Cl)c(N3CC(C(=O)O)c4ccccc43)n1)CN(C)CC2 (single isomer, unassigned) [Example 96]
2 | ≤ 100 | > 1000 | 80 |  |  |  | COc1cc2c(cc1Nc1ncc(Cl)c(N3C[C@](C)(C(=O)O)c4ccccc43)n1)CN(C)CC2 (single isomer, unassigned) [Example 118]
3 | ≤ 100 | ≤ 100 | 10 |  |  |  | COc1cc2c(cc1Nc1ncc(Cl)c(N3C[C@@](C)(C(=O)O)c4ccccc43)n1)CN(C)CC2 (single isomer, unassigned) [Example 119]
4 | ≤ 100 | > 1000 | 132 |  |  |  | COc1cc2c(cc1Nc1ncc(Cl)c(N3CC(C)(CC(=O)O)c4ccccc43)n1)CN(C)CC2 (single isomer, unassigned) [Example 147]
5 | ≤ 100 | ≤ 100 | 209 |  |  |  | COc1cc2c(cc1Nc1ncc(Cl)c(N3CC(C)(CC(=O)O)c4ccccc43)n1)CN(C)CC2 (single isomer, unassigned) [Example 148]
6 | ≤ 100 | 100 to 500 | 253 |  |  |  | COc1cc2c(cc1Nc1ncc(Cl)c(N3CC(C)(CC(=O)O)c4ccc(F)cc43)n1)CN(C)CC2 (single isomer, unassigned) [Example 152]
7 | ≤ 100 | > 1000 | 358 |  |  |  | COc1cc2c(cc1Nc1ncc(Cl)c(N3CC(C)(CC(=O)O)c4ccc(F)cc43)n1)CN(C)CC2 (single isomer, unassigned) [Example 153]
8 | ≤ 100 |  |  | ≤ 100 | > 1000 | 642 | COc1cc2c(cc1Nc1ncc(Cl)c(-n3ccc4ccccc43)n1)CN(C)CC2 [Example 2, N-(5-chloro-4-(1H-indol-1-yl)pyrimidin-2-yl)-6-methoxy-2-methyl-1,2,3,4-tetrahydroisoquinolin-7-amine]
9 | ≤ 100 | > 1000 | 337 | ≤ 100 | 100 to 500 | 601 | COc1cc2c(cc1Nc1ncc(Cl)c(N3CCc4ccccc43)n1)CN(C)CC2 [Example 4, N-(5-Chloro-4-(indolin-1-yl)pyrimidin-2-yl)-6-methoxy-2-methyl-1,2,3,4-tetrahydroisoquinolin-7-amine]
10 | ≤ 100 |  |  | ≤ 100 | > 1000 | >2457 | COc1cc2c(cc1Nc1ncc(Cl)c(-n3cc(C(=O)N(C)C)c4ccccc43)n1)CN(C)CC2 [Example 8]
11 | ≤ 100 |  |  | ≤ 100 | > 1000 | 571 | COc1cc2c(cc1Nc1ncc(Cl)c(-n3cnc4ccccc43)n1)CN(C)CC2 [Example 9, N-(4-(1H-benzo[d]imidazol-1-yl)-5-chloropyrimidin-2-yl)-6-methoxy-2-methyl-1,2,3,4-tetrahydroisoquinolin-7-amine]
12 | ≤ 100 | > 1000 | >298 |  |  |  | COc1cc2c(cc1Nc1ncc(C(F)(F)F)c(-n3ccc4ccccc43)n1)CN(C)CC2 [Example 10, N-(4-(1H-indol-1-yl)-5-(trifluoromethyl)pyrimidin-2-yl)-6-methoxy-2-methyl-1,2,3,4-tetrahydroisoquinolin-7-amine]
13 | ≤ 100 | 500 to 1000 | 62 |  |  |  | COc1cc2c(cc1Nc1ncc(Cl)c(N3CCc4cc(Cl)ccc43)n1)CN(C)CC2 [Example 13, N-(5-chloro-4-(5-chloroindolin-1-yl)pyrimidin-2-yl)-6-methoxy-2-methyl-1,2,3,4-tetrahydroisoquinolin-7-amine]
14 | ≤ 100 | ≤ 100 | 6 | ≤ 100 | ≤ 100 | 11 | CN1CCc2ccc(Nc3ncc(Cl)c(N4CCc5ccccc54)n3)cc2C1 [Example 14, N-(5-Chloro-4-(indolin-1-yl)pyrimidin-2-yl)-2-methyl-1,2,3,4-tetrahydroisoquinolin-7-amine]
15 | ≤ 100 | > 1000 | 174 |  |  |  | CN1CCc2cc(Cl)c(Nc3ncc(Cl)c(N4CCc5ccccc54)n3)cc2C1 [Example 15, 6-Chloro-N-(5-chloro-4-(indolin-1-yl)pyrimidin-2-yl)-2-methyl-1,2,3,4-tetrahydroisoquinolin-7-amine]
16 | ≤ 100 | > 1000 |  |  |  |  | COc1cc2c(cc1Nc1ncc(Cl)c(N3CCc4ncccc43)n1)CN(C)CC2 [Example 16, N-(5-chloro-4-(2,3-dihydro-1H-pyrrolo[3,2-b]pyridin-1-yl)pyrimidin-2-yl)-6-methoxy-2-methyl-1,2,3,4-tetrahydroisoquinolin-7-amine]
17 | ≤ 100 | > 1000 | >446 |  |  |  | COc1cc2c(cc1Nc1ncc(Cl)c(N3CCc4ccc(Cl)cc43)n1)CN(C)CC2 [Example 18, N-(5-chloro-4-(6-chloroindolin-1-yl)pyrimidin-2-yl)-6-methoxy-2-methyl-1,2,3,4-tetrahydroisoquinolin-7-amine]
18 | ≤ 100 | 500 to 1000 | 444 |  |  |  | COc1cc2c(cc1Nc1ncc(Cl)c(N3CC(S(C)(=O)=O)c4ccccc43)n1)CN(C)CC2 (centres unmarked) [Example 81, N-(5-chloro-4-(3-(methylsulfonyl)indolin-1-yl)pyrimidin-2-yl)-6-methoxy-2-methyl-1,2,3,4-tetrahydroisoquinolin-7-amine]
19 | ≤ 100 | > 1000 | 232 |  |  |  | COc1cc2c(cc1Nc1ncc(Cl)c(-n3cc(S(N)(=O)=O)c4ccccc43)n1)CN(C)CC2 [Example 83, 1-(5-Chloro-2-((6-methoxy-2-methyl-1,2,3,4-tetrahydroisoquinolin-7-yl)amino)pyrimidin-4-yl)-1H-indole-3-sulfonamide]
20 | ≤ 100 | 100 to 500 |  |  |  |  | COc1cc2c(cc1Nc1ncc(Cl)c(N3CC4(CC4)c4ccccc43)n1)CN(C)CC2 [Example 84, N-(5-chloro-4-(spiro[cyclopropane-1,3′-indolin]-1′-yl)pyrimidin-2-yl)-6-methoxy-2-methyl-1,2,3,4-tetrahydroisoquinolin-7-amine]
21 | ≤ 100 | > 1000 | 67 |  |  |  | COc1cc2c(cc1Nc1ncc(Cl)c(N3CCc4cc(P(C)(C)=O)ccc43)n1)CN(C)CC2 [Example 86]
22 | ≤ 100 | 100 to 500 |  |  |  |  | COc1cc2c(cc1Nc1ncc(Cl)c(N3CC(CO)c4ccccc43)n1)CN(C)CC2 (centres unmarked) [Example 87]
23 | ≤ 100 | > 1000 |  |  |  |  | COc1cc2c(cc1Nc1ncc(Cl)c(N3CC(P(C)(C)=O)c4ccccc43)n1)CN(C)CC2 (centres unmarked) [Example 88]
24 | ≤ 100 | > 1000 | 413 |  |  |  | COc1cc2c(cc1Nc1ncc(Cl)c(N3CCc4cc(C(F)F)ccc43)n1)CN(C)CC2 [Example 90, N-(5-chloro-4-(5-(difluoromethyl)indolin-1-yl)pyrimidin-2-yl)-6-methoxy-2-methyl-1,2,3,4-tetrahydroisoquinolin-7-amine]
